The values that follow come from patent publication US8211901B2, “Naphthamide derivatives as multi-target protein kinase inhibitors and histone deacetylase inhibitors” (Shenzhen Chipscreen Biosciences Ltd., priority 2009, dated 2012).

Bounds are passed on as bounds.

One data set deals with HCT-8. Briefly: Tumor cell proliferation (MTS), HCT-8. It is filed as cell-based. The settings on record: Homo sapiens, 72 hours, complete medium. On the procedure:
(§1) Measurement of In Vivo Cell Proliferation:
(§2) Tumor cells were trypsinized and plated into 96-well plates at 3,000 per well and incubated in complete medium with 10% FBS for 24 hours. Compounds were added over a final concentration range of 100 μmol/L to 100 nmol/L in 0.1% DMSO and incubated for 72 hours in complete medium. The effects on proliferation were determined by addition of MTS reagent (Promega) according to the instruction, incubation for 2 hours at 37° C. in CO2 incubator, and record the absorbance at 490 nm using an ELISA plate reader.
(§3) Human Cell Lines are Listed Below:
HCT-8: Ileocecal colorectal adenocarcinoma

Another data set concerns A549. Nature of the data set: Tumor cell proliferation (MTS), A549. It is filed as cell-based. The note with it: Homo sapiens, 72 hours, complete medium. On the procedure:
as §1, §2, §3
A549: Non small cell lung carcinoma

The subject of a further data set is A-498. Briefly: Tumor cell proliferation (MTS), A-498. It is filed as cell-based. The settings on record: Homo sapiens, A498; 72 hours, complete medium. On the procedure: as §1, §2
In another data set the test system is Bel-7402. Briefly: Tumor cell proliferation (MTS), Bel-7402. It is filed as cell-based. The note with it: Homo sapiens, 72 hours, complete medium. As for the experimental part: as §1, §2, §3
Bel-7402: Hepatocellular carcinoma

The next data set relates to MCF-7. Nature of the data set: Tumor cell proliferation (MTS), MCF-7. The format is cell-based. The settings on record: Homo sapiens, MCF7; 72 hours, complete medium. As for the experimental part: as §1, §2, §3
MCF-7: Mammary gland adenocarcinoma

The next data set concerns Class I HDAC. Nature of the data set: P21 reporter gene assay in HeLa cells. The format is cell-based. The settings on record: 24 hours. As for the experimental part:
HDAC subtype selectivity inhibition assay of tested compounds was carried out by several reporter gene assays experiments. Briefly, HeLa cells were seeded in 96-well plates the day before transfection to give a confluence of 50-80%. Cells were transfected with one of reporter gene plasmid containing a promoter sequence or response element upstream of a luciferase gene construct using FuGene6 transfection reagent according to the manufacturer's instruction (Roche). The promoters or response elements including p21-promoter was fused upstream to the luciferase gene reporter construct. For normalizing the transfection efficiency, a GFP expression plasmid was cotransfected. Cells were allowed to express protein for 24 hours followed by addition of individual compounds or the vehicle (DMSO). 24 hours later the cells were harvested, and the luciferase assay and GFP assay were performed using corresponding assay kits according to the manufacturer's instructions (Promega).

The next data set deals with HUVEC cells. Briefly: VEGF dependent cell proliferation (MTS). It is filed as cell-based. The note with it: Homo sapiens, VEGF 165 50 ng/ml, 72 hours, serum-free medium, read-out: GI50 nM (VEGF ligand-dependent cell proliferation). On the procedure:
VEGF Dependent Cell Proliferation:
HUVEC cells were plated into 96-well plates at 6,000 per well and incubated with serum-free medium for 2 hours. Compounds and VEGF 165 (50 ng/ml) were added and incubated for 72 hours in serum-free medium. The effects on proliferation were determined by addition of MTS reagent (Promega) according to the instruction, incubation for 2 hours at 37° C. in CO2 incubator, and record the absorbance at 490 nm using an ELISA plate reader.

For data set [1], the system named is total HDAC enzyme (HeLa extract). Nature of the data set: In vitro inhibition of total HDAC enzyme activity (HDAC Fluorimetric Assay/Drug Discovery Kit). The format is biochemical. On the procedure: Measurement of In Vitro Inhibition of Total HDAC Enzyme Activity:
The in vitro inhibition of total HDAC enzyme was determined by HDAC Fluorimetric Assay/Drug Discovery Kit (BIOMOL) according to manufacture's instruction. • 1. Add Assay buffer, diluted trichostatin A or test inhibitor to appropriate wells of the microtiter plate. Following table lists examples of various assay types and the additions required for each test.
• 2. Add diluted HeLa extract or other HDAC sample to all wells except those that are to be “No Enzyme Controls” (Blank). • 3. Allow diluted Fluor de Lys™ Substrate and the samples in the microtiter plate to equilibrate to assay temperature (25° C.). • 4. Initiate HDAC reactions by adding diluted substrate (25 μl) to each well and mixing thoroughly. • 5. Allow HDAC reactions to proceed for desired length of time and then stop them by addition of Fluor de Lys™ Developer (50 μl). Incubate plate at room temperature (25° C.) for 10-15 min. • 6. Read samples in a microtiter-plate reading fluorimeter capable of excitation at a wavelength in the range 350-380 nm and detection of emitted light in the range 440-460 nm. Measurement of In Vivo Inhibition of HDAC Subtype Activity: […]

The next data set addresses T1, human PDGFRβ (Homo sapiens, UniProt P09619).
T1 construct: expressed in transfected cells
Briefly: PDGF dependent cell proliferation (MTS). The note with it: PDGFRβ NIH-3T3 cells, PDGF BB 50 ng/ml, 72 hours, serum-free medium; read-out: GI50 nM (PDGF ligand-dependent cell proliferation). The format is cell-based. As for the experimental part: PDGF Dependent Cell Proliferation:
NIH-3T3 mouse fibroblasts cell line engineered to stably express human PDGFIRβ was constructed and used to evaluate PDGF dependent cell proliferation. PDGFRβ NIH-3T3 cells were plated into 96-well plates at 5,000 per well and incubated with serum-free medium for 24 hours. Compounds and PDGF BB (50 ng/ml) were added and incubated for 72 hours in serum-free medium. The effects on proliferation were determined by addition of MTS reagent (Promega) according to the instruction, incubation for 2 hours at 37° C. in CO2 incubator, and record the absorbance at 490 nm using an ELISA plate reader.

T1 sequence (P09619 33-1106): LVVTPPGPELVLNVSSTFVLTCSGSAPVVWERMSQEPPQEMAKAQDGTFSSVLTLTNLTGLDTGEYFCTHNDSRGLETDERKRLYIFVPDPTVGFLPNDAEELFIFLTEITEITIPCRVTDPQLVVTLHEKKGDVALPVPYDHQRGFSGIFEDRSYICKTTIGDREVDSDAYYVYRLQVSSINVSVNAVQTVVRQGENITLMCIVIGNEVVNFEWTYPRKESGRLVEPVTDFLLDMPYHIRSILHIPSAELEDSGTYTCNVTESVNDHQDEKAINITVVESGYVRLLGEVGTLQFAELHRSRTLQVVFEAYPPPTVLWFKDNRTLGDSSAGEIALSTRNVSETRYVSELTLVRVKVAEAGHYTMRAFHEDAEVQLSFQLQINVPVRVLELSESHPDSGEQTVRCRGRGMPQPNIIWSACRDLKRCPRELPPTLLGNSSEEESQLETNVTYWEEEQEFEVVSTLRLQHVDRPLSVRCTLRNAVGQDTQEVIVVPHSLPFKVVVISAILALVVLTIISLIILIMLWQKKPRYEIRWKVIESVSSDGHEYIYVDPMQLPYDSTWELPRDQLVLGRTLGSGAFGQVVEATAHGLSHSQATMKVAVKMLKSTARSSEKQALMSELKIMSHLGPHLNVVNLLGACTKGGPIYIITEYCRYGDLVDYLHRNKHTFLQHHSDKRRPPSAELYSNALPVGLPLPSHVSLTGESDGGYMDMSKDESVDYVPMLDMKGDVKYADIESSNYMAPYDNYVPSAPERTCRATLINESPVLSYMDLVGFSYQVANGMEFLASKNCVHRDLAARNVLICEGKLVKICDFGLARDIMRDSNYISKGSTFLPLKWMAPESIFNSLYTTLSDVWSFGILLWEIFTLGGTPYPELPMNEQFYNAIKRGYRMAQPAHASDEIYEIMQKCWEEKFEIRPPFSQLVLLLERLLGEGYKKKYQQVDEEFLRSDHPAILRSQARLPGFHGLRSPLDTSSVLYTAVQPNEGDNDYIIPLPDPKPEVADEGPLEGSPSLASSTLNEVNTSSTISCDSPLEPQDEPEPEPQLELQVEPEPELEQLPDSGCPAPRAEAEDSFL

On to `Nc1cc(F)ccc1NC(=O)c1ccc(CNC(=O)/C=C/c2cccnc2)cc1` [CS055, Chidamide, reference compound], for which the GI50 in the data set on HCT-8 amounted to 7.71 µM; with A549, 11.2 µM; in the data set with A-498, 12.1 µM; in the data set with Bel-7402 it was 18.9 µM; in the data set on MCF-7 it was 3.87 µM. In addition, the “Class I HDAC (P21 reporter assay) Fold Induction at 10 μM” value in the data set on Class I HDAC turned out to be 33 Fold.

In the case of `COc1cc2ncnc(Oc3ccc4c(C(=O)Nc5ccccc5N)cccc4c3)c2cc1OC` [Example 16, N-(2-aminophenyl)-6-(6,7-dimethoxyquinazolin-4-yloxy)-1-naphthamide], the GI50 is 3 nM in the data set with HUVEC cells; 12.3 µM in the data set with HCT-8; 48 nM at human PDGFRβ; 30 µM in the data set with A549; at least 30 µM in the data set with A-498; 30 µM in the data set with Bel-7402. Besides, the GI50 in the data set on MCF-7 amounted to 30 µM. In addition, the “% inhibition of total HDAC enzyme activity at 30 μM” value (shortened to “% inhibition”) in data set [1] was 8.6%. The “Class I HDAC (P21 reporter assay) Fold Induction at 10 μM” value with Class I HDAC was 1.3 Fold.

As to `COc1cc2ncnc(Oc3ccc4c(C(=O)Nc5ccc(F)cc5N)cccc4c3)c2cc1OC` [Example 17, N-(2-amino-4-fluorophenyl)-6-(6,7-dimethoxyquinazolin-4-yloxy)-1-naphthamide], the GI50 in the data set on HUVEC cells is 3 nM; in the data set with HCT-8 it was 3 µM; on human PDGFRβ it was 40 nM; in the data set with A549, 30 µM; in the data set on A-498, at least 30 µM; in the data set on Bel-7402 it was 30 µM. This compound had a GI50 in the data set with MCF-7 of 30 µM. Also, the “% inhibition” value in data set [1] came out at 22.5%. The “Class I HDAC (P21 reporter assay) Fold Induction at 10 μM” value in the data set with Class I HDAC stood at 1.1 Fold.

As to `COc1cc2ncnc(Oc3ccc4c(C(=O)Nc5ccc(C)cc5N)cccc4c3)c2cc1OC` [Example 18, N-(2-amino-4-methylphenyl)-6-(6,7-dimethoxyquinazolin-4-yloxy)-1-naphthamide], the figures for the GI50 in the data set with HUVEC cells and at human PDGFRβ were 7 nM and 15 nM, respectively. For the same compound, the “% inhibition” value in data set [1] turned out to be 17.1%. The “Class I HDAC (P21 reporter assay) Fold Induction at 10 μM” value in the data set with Class I HDAC came to 1.1 Fold.

For `COc1ccc(NC(=O)c2cccc3cc(Oc4ncnc5cc(OC)c(OC)cc45)ccc23)c(N)c1` [Example 19, N-(2-amino-4-methoxyphenyl)-6-(6,7-dimethoxyquinazolin-4-yloxy)-1-naphthamide], the figures for the GI50 in the data set with HUVEC cells and on human PDGFRβ were 23 nM and 11 nM, respectively. Also, the “% inhibition” value in [1] turned out to be 21.9%. Besides, the “Class I HDAC (P21 reporter assay) Fold Induction at 10 μM” value in the data set on Class I HDAC was determined as 1.4 Fold.

As to `COc1cc2ncnc(Oc3ccc4c(C(=O)Nc5ccc(Cl)cc5N)cccc4c3)c2cc1OC` [Example 20, N-(2-amino-4-chlorophenyl)-6-(6,7-dimethoxyquinazolin-4-yloxy)-1-naphthamide], the figures for the GI50 in the data set with HUVEC cells and at human PDGFRβ were 6 nM and 23 nM, respectively. In addition, in [1], the “% inhibition” value was 21.9%. Besides, the “Class I HDAC (P21 reporter assay) Fold Induction at 10 μM” value in the data set on Class I HDAC is on record as 1.5 Fold.

With `COc1cc2ncnc(Oc3ccc4c(C(=O)Nc5ccc(Br)cc5N)cccc4c3)c2cc1OC` [Example 21, N-(2-amino-4-bromophenyl)-6-(6,7-dimethoxyquinazolin-4-yloxy)-1-naphthamide], the GI50 with HUVEC cells was determined as 5 nM; on human PDGFRβ it was 19 nM. Besides, in data set [1], the “% inhibition” value was found to be 18.6%. In addition, the “Class I HDAC (P21 reporter assay) Fold Induction at 10 μM” value with Class I HDAC stood at 1.1 Fold.

For `COc1cc2ncnc(Oc3ccc4c(C(=O)Nc5ccc(C(F)(F)F)cc5N)cccc4c3)c2cc1OC` [Example 22, N-(2-amino-4-trifluoromethylphenyl)-6-(6,7-dimethoxyquinazolin-4-yloxy)-1-naphthamide], the GI50 with HUVEC cells is 3 nM; on human PDGFRβ, 372 nM. The “% inhibition” value in [1] amounted to 17%. Besides, the “Class I HDAC (P21 reporter assay) Fold Induction at 10 μM” value with Class I HDAC is listed as 1.1 Fold.

As for `COc1cc2ncnc(Oc3ccc4c(C(=O)NCc5ccc(C(=O)Nc6ccccc6N)cc5)cccc4c3)c2cc1OC` [Example 23, N-(4-((2-aminophenyl)carbamoyl)benzyl)-6-(6,7-dimethoxyquinazolin-4-yloxy)-1-naphthamide], the GI50 with HUVEC cells came to 18 nM; in the data set on HCT-8 it was 5.7 µM; on human PDGFRβ, 148 nM; in the data set with A549, 30 µM; in the data set with A-498, 14.7 µM; in the data set with Bel-7402, 30 µM. This compound yielded a GI50 in the data set with MCF-7 of 4.3 µM. Further, the “% inhibition” value in [1] was found to be 49.4%. Further, the “Class I HDAC (P21 reporter assay) Fold Induction at 10 μM” value in the data set on Class I HDAC turned out to be 11.3 Fold.

On to `COc1cc2ncnc(Oc3ccc4c(C(=O)NCc5ccc(C(=O)Nc6ccccc6N)cn5)cccc4c3)c2cc1OC` [Example 25], for which the GI50 in the data set with HUVEC cells came to 13 nM; with HCT-8, 4.9 µM; at human PDGFRβ it was 69 nM; in the data set with A549 it was 30 µM; with A-498, 14.7 µM; in the data set on Bel-7402, 30 µM. The same compound yielded a GI50 in the data set with MCF-7 of 6.1 µM. The “% inhibition” value in data set [1] is given as 47.9%. Moreover, in the data set on Class I HDAC, the “Class I HDAC (P21 reporter assay) Fold Induction at 10 μM” value was determined as 12.1 Fold.

On to `Nc1ccccc1NC(=O)c1cccc2cc(Oc3ccnc4ccccc34)ccc12` [Example 39, N-(2-aminophenyl)-6-(quinolin-4-yloxy)-1-naphthamide], for which the GI50 in the data set with HUVEC cells was found to be 107 nM; on human PDGFRβ, 32 nM. Further, the “% inhibition” value in data set [1] was 15.9%. The “Class I HDAC (P21 reporter assay) Fold Induction at 10 μM” value in the data set on Class I HDAC amounted to 1.2 Fold.

`Cc1cccc2c(Oc3ccc4c(C(=O)Nc5ccccc5N)cccc4c3)ccnc12` [Example 40, N-(2-aminophenyl)-6-(8-methylquinolin-4-yloxy)-1-naphthamide]: the GI50 in the data set with HUVEC cells stood at 1000 nM. Further, the “% inhibition” value in data set [1] stood at 22.2%. Also, in the data set with Class I HDAC, the “Class I HDAC (P21 reporter assay) Fold Induction at 10 μM” value amounted to 1.3 Fold.

`Nc1ccccc1NC(=O)c1cccc2cc(Oc3ccnc4cc(Cl)ccc34)ccc12` [Example 41, N-(2-aminophenyl)-6-(7-chloroquinolin-4-yloxy)-1-naphthamide]: the results for the GI50 with HUVEC cells and on human PDGFRβ were 105 nM and 479 nM, respectively. Besides, the “% inhibition” value in [1] is reported as 19.3%. In addition, the “Class I HDAC (P21 reporter assay) Fold Induction at 10 μM” value in the data set with Class I HDAC is given as 1.1 Fold.

On to `Nc1ccccc1NC(=O)c1cccc2cc(Oc3ccnc4c(C(F)(F)F)cccc34)ccc12` [Example 42, N-(2-aminophenyl)-6-(8-trifluoromethylquinolin-4-yloxy)-1-naphthamide], for which the values for the GI50 with HUVEC cells and on human PDGFRβ were 1000 nM and 48 nM, respectively. Also, the “% inhibition” value in [1] stood at 6.2%. In the data set with Class I HDAC, the “Class I HDAC (P21 reporter assay) Fold Induction at 10 μM” value came out at 1.3 Fold.

Take `Nc1ccccc1NC(=O)c1ccc(CNC(=O)c2cccc3cc(Oc4ccnc5cc(Cl)ccc45)ccc23)cc1` [Example 43, N-(4-((2-aminophenyl)carbamoyl)benzyl)-6-(7-chloroquinolin-4-yloxy)-1-naphthamide]: the GI50 with HUVEC cells worked out at 288 nM. Besides, in data set [1], the “% inhibition” value stood at 38.7%. The “Class I HDAC (P21 reporter assay) Fold Induction at 10 μM” value with Class I HDAC is given as 6.1 Fold.
